Experimental data published in patent US4997757A, “Process for detecting potential carcinogens” (GeneBioMed, Inc., priority 1988, dated 1991).
Like-named read-outs stand apart in the source and are kept apart here. Each block holds one compound with its values, some of them ahead of it.

Tests used:
[1] = system: strain RS112 (his3 deletion alleles); assay: SCC (sister chromatid conversion) intrachromosomal recombination system, deletion alleles of his3; type: cell-based, Saccharomyces cerevisiae; details: for SCC/10^4 cells: strain RS112
Text: (§1) In the most preferred embodiment it is preferable to grow the cells in a medium which selects against the occurrence of the genome rearrangement to keep the control values as low as possible. In the embodiment described in FIG. 1 it is shown that the LEU2 gene of construct 10 is lost after the genome rearrangement which results in construct 22. Therefore cells containing construct 10, before the rearrangement are able to grow in the absence of leucine in the medium, but cells containing construct 22, after the genome rearrangement are not able to grow in the absence of leucine. After the genome rearrangement cells containing construct 22 are able to grow in the absence of histidine in the medium, but cells containing construct 10 before the genome rearrangement are not able to grow in the absence of histidine. Therefore the selection scheme which was used for Example 3 involves growth of the yeast culture in medium lacking leucine but containing histidine before and during the exposure to the potential carcinogens or other test agents. After the exposure the cells which have undergone genome rearrangement are selected on medium lacking histidine but containing leucine.
(§2) It is preferred that, when the cells are to be grown in the presence of the agent, logarithmic phase cultures are used. In one embodiment, for each of the test strains, a cell suspension of 2×10^6 cells per milliliter-LEU medium be prepared from a logarithmic phase culture pregrown in liquid-LEU medium. The whole mix is aliquoted into portions of 5 milliliter into disposable plastic tubes in the presence of the agent to be tested, the tubes are sealed and shaken continuously for 17 hours.
(§3) After the yeast cells have been exposed to both the agent to be tested and the selection medium under the conditions of the test and have been incubated for some time period of about more than one day preferably at 30 degrees Celsius or any other temperature which allows growth of the yeast cells used, the number of colonies formed by cells which have undergone genome rearrangement are counted and compared with the number of colonies of yeast cells identical in substantially every respect with the exception of not having been exposed to the suspected carcinogenic agent. The rates of genome rearrangement for both the control and experimental samples are then compared.
(§4) Plasmids were constructed as substrates to study intrachromosomal recombination; see an earlier part of the specification and Example 1. The plasmids pRS6 (FIG. 7, construct 108) and pRS11 (FIG. 9, construct 118) both contained an internal fragment of the HIS3 gene as well as one selectable marker (LEU2). pRS11 in addition contained the 2 μm origin of replication to select for the presence of the plasmid after plasmid excision. pRS11FRT-had the FLP recombination site disrupted (see Example 1). Yeast strains RSY6 containing construct 10, RSY11 containing construct 118 and RSY11FRT- (see Example 1) were used. They contained the respective pRS plasmids integrated into the HIS3 gene of strain S35/2-10C giving rise to disruptions of the HIS3 gene construct 10 or analogs to it (FIG. 10). The two resulting his3 deletion alleles (FIG. 10) shared about 400 basepairs of homology and thus could interact with each other by homologous recombination. Reversion of his- to HIS+ occurred at a frequency of about 4×10^-4 in all three strains. All of 100 tested HIS+ revertants of strain RSY6 were leu-. Because of this observation strains used for recombination studies were always pregrown on -LEU medium to prevent growth of HIS+ revertants. Therefore the frequency of HIS+ revertants is a measure of the recombination rate.
(§5) The strain used in this example was RS112 which was obtained by crossing strain RSY6 with strain 428. RSY6 contains the SCC system and was deposited at November 30 under "ATCC designation number 20871" with the American Type Culture Collection of 12301 Parklawn Drive, Rockville, Md. 20852. […]

[2] = system: strain RS112 (heteroalleles ade2-40 and ade2-101); assay: ICC (interchromosomal gene conversion) between heteroalleles ade2-40 and ade2-101; type: cell-based, Saccharomyces cerevisiae; details: for ICC/10^5 cells: strain RS112
Description: as §2
(§6) The strain used in this example was RS112 which was obtained by crossing strain RSY6 with strain 428. RSY6 contains the SCC system and was deposited at November 30 under "ATCC designation number 20871" with the American Type Culture Collection of 12301 Parklawn Drive, Rockville, Md. 20852. Strain 428 was obtained from M. Snyder, Department of Biology, at Yale University, New Haven, Conn. and was used because it contains the mutation his3Δ-200, the construction of which has been described in an article by Struhl entitled "Naturally occurring poly(dA-dT) sequences are upstream promoter elements of constitutive transcription in yeast, published in Proc. Natl. Acad. Sci. USA 82 on pages 8419-8423. Strains containing the his3Δ-200 mutation are readily available to those skilled in the art.
Strain RS112 has the following genotype: [drawing 2]
Values for the intrachromosomal recombination system between deletion alleles of his3 are designated as SCC. Also strain RS112 contained heteroallelic mutations in ade2 so that the frequency of interchromosomal gene conversion (ICC) between heteroalleles in a diploid was determined. ICC was measured as recombination between the heteroalleles ade2-40 and ade2-101 by selecting for ADE+. Values obtained are given to compare the performance of the two systems.
The frequencies for ICC are given in events per 10^5 survivals, and the frequencies for SCC are given in events per 10^4 survivals. It has to be noted that for sister chromatid recombination in mammalian cells the increase even with potent carcinogens is usually less than ten fold and also slight increases have been taken as positive results. For instance an increase in frequency of two fold has been taken to be significant; see a publication by Rudiger et al. entitled "Metabolites of diethylstilbestrol induce sister chromatid exchange in human cultured fibroblasts." published in Nature 281:392-394).

[3] = survival of yeast exposed to agent; type: cell-based, Saccharomyces cerevisiae
Text: (§7) It is preferred to conduct a preliminary experiment to determine those concentrations of the agent to be tested which should be evaluated in the main experiment. Yeast cells are exposed to a wide range of concentrations of the agent to be tested to determine its cytotoxicity.
as §2, §6

Salmonella typhimurium = details: cited from earlier work
mammalian cells [4] = details: cited from earlier work
mammalian cells [5] = details: cited from earlier work; remark: listed apart in the source
[6] = cited from earlier work; for carcinogenicity: in vivo
[7] = SCC (sister chromatid conversion) intrachromosomal recombination system, deletion alleles of his3; type: cell-based, Saccharomyces cerevisiae; details: yeast strain rs112; versus untreated control; read-out: induction for SCC / increase in SCC
Text: as §1, §2, §3, §4, §5

rats = details: cited from earlier work
mice = details: cited from earlier work
strain RS112 = assay: survival of yeast exposed to agent; type: cell-based, Saccharomyces cerevisiae; details: 1020 min
Text: as §7, §2, §6

SMILES: CCSCC[C@H](N)C(=O)O [Ethionine]
SCC/10^4 cells ([1]; 10 mg/ml): 4.8 /10^4 cells | SCC/10^4 cells ([1]; 20 mg/ml): 5.4 /10^4 cells | ICC/10^5 cells ([2]; 10 mg/ml): 0.77 /10^5 cells | ICC/10^5 cells ([2]; 20 mg/ml): 0.80 /10^5 cells | viability at 17 h ([3]; yeast strain rs112, 10 mg/ml): 79% | viability at 17 h ([3]; yeast strain rs112, 20 mg/ml): 67% | Ames Assay result (Salmonella typhimurium): negative | SCE assay result (mammalian cells [4]): negative | chromosomal aberration assay result (mammalian cells [5]): negative | carcinogenicity [6]: liver carcinogen | carcinogenicity ([6]; listed as ethionine): known carcinogens

SMILES: O=[N+]([O-])c1cc[n+]([O-])c2ccccc12 [NQO, 4-nitroquinoline-N-oxide]
fold induction [7]: 20 to 150 | SCC result in words [1]: inducible | SCC/10^4 cells ([1]; 0.1 μg/ml): 16.9 /10^4 cells | SCC/10^4 cells ([1]; 0.5 μg/ml): 19.0 /10^4 cells | SCC/10^4 cells ([1]; 2 μg/ml): 55.6 /10^4 cells | ICC result in words [2]: inducible | ICC/10^5 cells ([2]; 0.1 μg/ml): 57.4 /10^5 cells | ICC/10^5 cells ([2]; 0.5 μg/ml): 93 /10^5 cells | ICC/10^5 cells ([2]; 2 μg/ml): 106 /10^5 cells | viability at 17 h ([3]; yeast strain rs112, 0.1 μg/ml): 84% | viability at 17 h ([3]; yeast strain rs112, 0.5 μg/ml): 74% | viability at 17 h ([3]; yeast strain rs112, 2 μg/ml): 13.3%

SMILES: CCOS(C)(=O)=O [EMS, ethyl methanesulphonate]
fold induction [7]: 20 to 150 | SCC result in words [1]: inducible | SCC/10^4 cells ([1]; 0.02 %): 4.1 /10^4 cells | SCC/10^4 cells ([1]; 0.1 %): 18.1 /10^4 cells | SCC/10^4 cells ([1]; 0.2 %): 25.3 /10^4 cells | ICC result in words [2]: inducible | ICC/10^5 cells ([2]; 0.02 %): 1.3 /10^5 cells | ICC/10^5 cells ([2]; 0.1 %): 15.8 /10^5 cells | ICC/10^5 cells ([2]; 0.2 %): 28.9 /10^5 cells | viability at 17 h ([3]; yeast strain rs112, 0.02 %): 98% | viability at 17 h ([3]; yeast strain rs112, 0.1 %): 91% | viability at 17 h ([3]; yeast strain rs112, 0.2 %): 37%

SCC result in words [1]: test positive
SMILES: C=CCc1ccc(O)c(OC)c1 [eugenol]

SMILES: COS(C)(=O)=O [MMS, methyl methane sulphonate]
fold induction [7]: 20 to 150 | SCC result in words [1]: inducible | SCC/10^4 cells ([1]; 0.001 %): 3.9 /10^4 cells | SCC/10^4 cells ([1]; 0.005 %): 11.4 /10^4 cells | SCC/10^4 cells ([1]; 0.01 %): 46.6 /10^4 cells | SCC/10^4 cells ([1]; 0.02 %): 129 /10^4 cells | ICC result in words [2]: inducible | ICC/10^5 cells ([2]; 0.001 %): 1.9 /10^5 cells | ICC/10^5 cells ([2]; 0.005 %): 14.4 /10^5 cells | ICC/10^5 cells ([2]; 0.01 %): 42.3 /10^5 cells | ICC/10^5 cells ([2]; 0.02 %): 62 /10^5 cells | viability at 17 h ([3]; yeast strain rs112, 0.001 %): 100% | viability at 17 h ([3]; yeast strain rs112, 0.005 %): 97% | viability at 17 h ([3]; yeast strain rs112, 0.01 %): 87% | viability at 17 h ([3]; yeast strain rs112, 0.02 %): 35%

SMILES: C=O [Formaldehyde]
fold induction [7]: ~20 | SCC result in words [1]: test positive | SCC/10^4 cells ([1]; 0.015 mg/ml): 3.8 /10^4 cells | SCC/10^4 cells ([1]; 0.03 mg/ml): 7.3 /10^4 cells | SCC/10^4 cells ([1]; 0.05 mg/ml): 29.5 /10^4 cells | SCC/10^4 cells ([1]; 0.07 mg/ml): 40.0 /10^4 cells | ICC result in words [2]: induces ICC | ICC/10^5 cells ([2]; 0.015 mg/ml): 2.5 /10^5 cells | ICC/10^5 cells ([2]; 0.03 mg/ml): 2.1 /10^5 cells | ICC/10^5 cells ([2]; 0.05 mg/ml): 5.4 /10^5 cells | ICC/10^5 cells ([2]; 0.07 mg/ml): 7.1 /10^5 cells | viability at 17 h ([3]; yeast strain rs112, 0.015 mg/ml): 97% | viability at 17 h ([3]; yeast strain rs112, 0.03 mg/ml): 53% | viability at 17 h ([3]; yeast strain rs112, 0.05 mg/ml): 4.2% | viability at 17 h ([3]; yeast strain rs112, 0.07 mg/ml): 2.2% | Ames Assay result (Salmonella typhimurium): negative | carcinogenicity (rats): causes nasal cancer in rats | carcinogenicity [6]: known carcinogen | tumor promotion ([6]; proposed): proposed to act as tumor promoter

SMILES: CCOC(N)=O [Urethane]
SCC/10^4 cells ([1]; 10 mg/ml): 1.9 /10^4 cells | SCC/10^4 cells ([1]; 20 mg/ml): 4.8 /10^4 cells | SCC/10^4 cells ([1]; 40 mg/ml): 5.3 /10^4 cells | ICC/10^5 cells ([2]; 10 mg/ml): 0.66 /10^5 cells | ICC/10^5 cells ([2]; 20 mg/ml): 0.40 /10^5 cells | ICC/10^5 cells ([2]; 40 mg/ml): 0.78 /10^5 cells | viability at 17 h ([3]; yeast strain rs112, 10 mg/ml): 107% | viability at 17 h ([3]; yeast strain rs112, 20 mg/ml): 51% | viability at 17 h ([3]; yeast strain rs112, 40 mg/ml): 10% | Ames Assay result (Salmonella typhimurium): negative | SCE assay result (mammalian cells [4]): negative | chromosomal aberration assay result (mammalian cells [5]): negative | carcinogenicity (mice): very effective in producing lung as well as skin tumors in mice | carcinogenicity [6]: known carcinogens

SMILES: Cc1c(N)c(=O)n(-c2ccccc2)n1C [Aminoantipyrine]
SCC/10^4 cells ([1]; 10 mg/ml): 1.02 /10^4 cells | SCC/10^4 cells ([1]; 20 mg/ml): 1.80 /10^4 cells | SCC/10^4 cells ([1]; 40 mg/ml): 25.8 /10^4 cells | ICC/10^5 cells ([2]; 10 mg/ml): 0.75 /10^5 cells | ICC/10^5 cells ([2]; 20 mg/ml): 1.8 /10^5 cells | survival (strain RS112; 10 mg/ml): 97% | survival (strain RS112; 20 mg/ml): 73.3% | survival (strain RS112; 40 mg/ml): 0.89% | Ames Assay result (Salmonella typhimurium): negative | SCE assay result (mammalian cells [4]): negative | chromosomal aberration assay result (mammalian cells [5]): negative | carcinogenicity (mice): bladder carcinogen | carcinogenicity [6]: known carcinogens
